The values that follow come from patent publication US20050130134A1, “Means and methods for monitoring non-nucleoside reverse transcriptase inhibitor antiretroviral therapy and guiding therapeutic decisions in the treatment HIV-AIDS” (ViroLogic, Inc., priority 2000, published 2005).

“And” between values parts separate entries of the source, which are not always exact repeats. Equal values may be shown once. “Also recorded” adds a separate entry of the source.

Assay [1] has as its system HIV-1 reverse transcriptase L100I (L100I-RTV). Put plainly: Phenotypic susceptibility assay, site directed mutant L100I-RTV. The assay is classed as cell-based. The settings on record: >1 loss of susceptibility. The method, then: (§1) Resistance tests were carried out with resistance test vectors using two host cell types. Resistance test vector viral particles were produced by a first host cell (the resistance test vector host cell) that was prepared by transfecting a packaging host cell with the resistance test vector and the packaging expression vector. The resistance test vector viral particles were then used to infect a second host cell (the target host cell) in which the expression of the indicator gene is measured.
(§2) The resistance test vectors containing a functional luciferase gene cassette were constructed and host cells were transfected with the resistance test vector DNA. The resistant test vectors contained patient-derived reverse transcriptase and protease sequences that were either susceptible or resistant to the antiretroviral agents, such as nucleoside reverse transcriptase inhibitors, non-nucleoside reverse transcriptase inhibitors and protease inhibitors. The resistance test vector viral particles produced by transfecting the resistance test vector DNA into host cells, either in the presence or absence of protease inhibitors, were used to infect target host cells grown either in the absence of NRTI or NNRTI or in the presence of increasing concentrations of the drug. […] The IC50 values were determined by plotting percent drug inhibition vs. log10 drug concentration.
(§3) Host cells were seeded in 10-cm-diameter dishes and were transfected several days after plating with resistance test vector plasmid DNA and the envelope expression vector. […] HIV capsid protein (p24) levels in the harvested cell culture media were determined by an EIA method as described by the manufacturer (SIAC; Frederick, Md.). […] The inhibitory effect of the drug was determined using the following equation: % luciferase inhibition=1-(RLUluc[drug]÷RLUluc)×100 where RLUluc [drug] is the relative light unit of luciferase activity in infected cells in the presence of drug and RLUluc is the Relative Light Unit of luciferase activity in infected cells in the absence of drug. […]

Assay [2] deals with HIV-1 reverse transcriptase Y181I (Y181I-RTV). Put plainly: Phenotypic susceptibility assay, site directed mutant Y181I-RTV. It is filed as cell-based. The conditions noted are these: >1 loss of susceptibility. Here is the method: as §1, §2, §3
Assay [3] has as its system T66I integrase site-directed mutant. The experiment in a line: Phenotypic susceptibility assay, integrase T66I mutated resistance test vector. The settings on record: {}. It is filed as cell-based, HIV. Here is the method: (§4) Transfections were performed using a calcium-phosphate precipitation procedure. […] Cell lysates were assayed for luciferase activity (FIG. 3). […] The drug inhibition curves are shown in (FIG. 3).
A resistance test vector containing the threonine to isoleucine mutation at position 66 of the integrase protein (T66I) was constructed and tested using the phenotypic assay described earlier.

For assay [4], the system named is HIV-1 reverse transcriptase A98G + G190S (A98G-G190S-RTV). Put plainly: Phenotypic susceptibility assay, site directed mutant A98G-G190S-RTV. It is filed as cell-based. The conditions noted are these: >1 loss, <1 increased susceptibility. The method, then:
as §1, §2, §3

Assay [5] has as its system HIV-1 reverse transcriptase A98G (A98G-RTV). The experiment in a line: Phenotypic susceptibility assay, site directed mutant A98G-RTV. The assay is classed as cell-based. The conditions noted are these: >1 loss of susceptibility. The method, then:
as §1, §2, §3

Assay [6] concerns HIV-1 reverse transcriptase K103N (K103N-RTV). The experiment in a line: Phenotypic susceptibility assay, site directed mutant K103N-RTV. It is filed as cell-based. The conditions noted are these: for change in susceptibility / resistance: K103N mutation; for fold change in susceptibility compared to wild type control RTV: K103N-RTV, >1 loss of susceptibility. The method, then: as §1
(§5) The resistance test vectors containing a functional luciferase gene cassette were constructed and host cells were transfected with the resistance test vector DNA. The resistant test vectors contained patient-derived reverse transcriptase and protease sequences that were either susceptible or resistant to the antiretroviral agents, such as nucleoside reverse transcriptase inhibitors, non-nucleoside reverse transcriptase inhibitors and protease inhibitors. The resistance test vector viral particles produced by transfecting the resistance test vector DNA into host cells, either in the presence or absence of protease inhibitors, were used to infect target host cells grown either in the absence of NRTI or NNRTI or in the presence of increasing concentrations of the drug. The amount of luciferase activity produced in infected target host cells in the presence of drug was compared to the amount of luciferase produced in infected target host cells in the absence of drug. Drug resistance was measured as the amount of drug required to inhibit by 50% the luciferase activity detected in the absence of drug (inhibitory concentration 50%, IC50). The IC50 values were determined by plotting percent drug inhibition vs. log10 drug concentration.
(§6) Host cells were seeded in 10-cm-diameter dishes and were transfected several days after plating with resistance test vector plasmid DNA and the envelope expression vector. Transfections were performed using a calcium-phosphate precipitation procedure. The cell culture media containing the DNA precipitate was replaced with fresh medium, from one to 24 hours, after transfection. Cell culture media containing resistance test vector viral particles was harvested one to four days after transfection and was passed through a […] filter before being stored at −80° C. HIV capsid protein (p24) levels in the harvested cell culture media were determined by an EIA method as described by the manufacturer (SIAC; Frederick, Md.). Before infection, target cells (293 and 293/T) were plated in cell culture media. Control infections were performed using cell culture media from mock transfections (no DNA) or transfections containing the resistance test vector plasmid DNA without the envelope expression plasmid. One to three or more days after infection the media was removed and cell lysis buffer (Promega) was added to each well. […] The inhibitory effect of the drug was determined using the following equation: % luciferase inhibition=1-(RLUluc[drug]÷RLUluc)×100 where RLUluc [drug] is the relative light unit of luciferase activity in infected cells in the presence of drug and RLUluc is the Relative Light Unit of luciferase activity in infected cells in the absence of drug. IC50 values were obtained from the sigmoidal curves that were generated from the data by plotting the percent inhibition of luciferase activity vs. the log10 drug concentration. […]

In assay [7] the test system is HIV-1 reverse transcriptase G190A (G190A-RTV). Put plainly: Phenotypic susceptibility assay, site directed mutant G190A-RTV. The assay is classed as cell-based. The conditions noted are these: for change in susceptibility: G190A-RTV versus wild type reference RTV. The method, then: as §1, §5
as §3, with “vector. Transfections were performed using a calcium-phosphate precipitation procedure. The cell culture media containing the DNA precipitate was replaced with fresh medium, from one to 24 hours, after transfection.” for “vector.”

In assay [8] the test system is HIV-1 reverse transcriptase P236L plus K103N, Y181C or both. The experiment in a line: Phenotypic susceptibility assay, P236L with K103N, Y181C or K103N+Y181C. It is filed as cell-based. The conditions noted are these: P236L added to K103N, Y181C or K103N+Y181C versus corresponding RTV lacking P236L. Here is the method: as §4
Resistance test vectors were constructed containing the P236L mutation alone and in combination with other known drug resistance mutations (K103N, Y181C) that are known to modulate the susceptibility of HIV-1 to NNRTIs. […] The P236L mutation was also introduced into a RTV containing mutations at K103N, Y181C or both (K103N+Y181C).

Assay [9] has as its system RTV-1033 patient virus (RT V106A, V189L, F227L). The experiment in a line: Phenotypic susceptibility assay, RTV-1033 (patient 98-1033). It is filed as cell-based, HIV-1. Here is the method: as §4
The test system of assay [10] is HIV-1 reverse transcriptase Y181C + A98G (Y181C-A98G-RTV). The experiment in a line: Phenotypic susceptibility assay, site directed mutant Y181C-A98G-RTV. It is filed as cell-based. The conditions noted are these: >1 loss of susceptibility. The method, then: as §1, §2, §3
In assay [11] the test system is HIV-1 reverse transcriptase K101E (K101E-RTV). The experiment in a line: Phenotypic susceptibility assay, site directed mutant K101E-RTV. It is filed as cell-based. The method, then:
as §1, §5, §6

Assay [12] has as its system HIV-1 reverse transcriptase E138A + Y188L (E138A-Y188L-RTV). Put plainly: Phenotypic susceptibility assay, site directed mutant E138A-Y188L-RTV. The conditions noted are these: >1 loss of susceptibility. The assay is classed as cell-based. The method, then:
as §1, §2, §3

For assay [13], the system named is HIV-1 reverse transcriptase Y188C (Y188C-RTV). The experiment in a line: Phenotypic susceptibility assay, site directed mutant Y188C-RTV. The assay is classed as cell-based. The settings on record: >1 loss of susceptibility. Here is the method: as §1, §2, §3
Assay [14] relates to HIV-1 reverse transcriptase Y181C (Y181C-RTV). Put plainly: Phenotypic susceptibility assay, site directed mutant Y181C-RTV. It is filed as cell-based. The conditions noted are these: for resistance profile: Y181C site directed mutant, FIG. 5. Here is the method:
as §1, §2, §3

Assay [15] has as its system HIV-1 reverse transcriptase V189L (V189L-RTV). The experiment in a line: Phenotypic susceptibility assay, site directed mutant V189L-RTV. It is filed as cell-based. The settings on record: >1 loss of susceptibility. The method, then:
as §1, §2, §3

The subject of assay [16] is HIV-1 reverse transcriptase V106A (V106A-RTV). The experiment in a line: Phenotypic susceptibility assay, site directed mutant V106A-RTV. It is filed as cell-based. The settings on record: >1 loss of susceptibility. The method, then:
as §1, §2, §3

Assay [17] concerns RTV-B clone 1 (RT A98G, G190S). Put plainly: Phenotypic susceptibility assay, RTV-B clone 1 (patient B). The conditions noted are these: >1 loss, <1 increased susceptibility. The assay is classed as cell-based, HIV-1. Here is the method:
as §1, §2, §3

Setting [18] is: K101E-RTV, >1 loss of susceptibility.
The mark [19] stands for this setting: second pair of values printed in the K101E-RTV sentence of b280.

As to `CC(C)Nc1cccnc1N1CCN(C(=O)c2cc3cc(NS(C)(=O)=O)ccc3[nH]2)CC1` [delavirdine], the “fold change in susceptibility compared to wild type control RTV” value (from here on “fold change … to wild type control RTV”) is on record as 30 fold in assay [1]; 20 fold in assay [2]; 0.8 fold in assay [4]; 3 fold in [5]; 50 fold in assay [6]; 240 fold in [10]. The “fold change … to wild type control RTV” value in [11] (setting [18]) was determined as 5 fold; in assay [12] it was 75 fold; in assay [13], 3 fold; in assay [15], 1.8 fold; in assay [16] it was 5 fold. The “increase in susceptibility compared to wild type control RTV” value (“increase in susceptibility” for short) in [3] is recorded as 8 to 10 fold. The “change in susceptibility / resistance” value in assay [6] is listed as “reduced susceptibility; also recorded: resistance”. In addition, the “change in susceptibility” value is “slightly more susceptible; also recorded: increase; also recorded: slightly increase susceptibility” in [7], “increased susceptibility” in assay [7] (listed as delviridine) and “less susceptible (more resistant); also recorded: additional reduction; also recorded: severe resistance” in assay [8]. In assay [9], this compound showed a decrease in susceptibility of 30 fold. Also, the “resistance profile” value in [14] was “resistance”. For the same compound, the “fold change in susceptibility” value in assay [17] turned out to be 0.55 fold.

For `O=C1Nc2ccc(Cl)cc2[C@@](C#CC2CC2)(C(F)(F)F)O1` [efavirenz], the “fold change … to wild type control RTV” value in [1] is recorded as 10 fold; in assay [2] it was 1.4 fold; in assay [4], “greater than 250 fold”; in assay [5], 3 fold; in assay [6] it was 30 fold; in assay [7] (G190A-RTV), 8 fold. Besides, the “fold change … to wild type control RTV” value was 7 fold in assay [10]; 5 fold in [11] (setting [18]); 30 fold in assay [11] (setting [19]); 88 fold in assay [12]; 20 fold in assay [13]; 3 fold and 4 fold in [14] (Y181C-RTV, >1 loss of susceptibility). Further, the entries for the “fold change … to wild type control RTV” value in assay [15] and in assay [16] were 1.3 fold and 1.7 fold, respectively. In addition, the “increase in susceptibility” value in assay [3] lay in the range of 8 to 10 fold. Besides, the “change in susceptibility” value in [8] was “restores a significant portion of the loss of susceptibility”. This compound also displayed a decrease in susceptibility in [9] of 200 fold. The “fold change in susceptibility” value in [17] is recorded as 250 fold.

`Cc1ccnc2c1NC(=O)c1cccnc1N2C1CC1` [nevirapine]: the “fold change … to wild type control RTV” value is given as 3 fold in assay [1]; 740 fold in [2]; “greater than 800 fold” in assay [4]; 8 fold in assay [5]; 55 fold in assay [6]; “greater than 800 fold” in [10]. The “fold change … to wild type control RTV” value in assay [11] (setting [18]) is on record as 12 fold; in assay [11] (setting [19]), 55 fold; in assay [12] it was “greater than 800 fold”; in assay [13], 30 fold; in assay [15], 1.3 fold; in assay [16], 60 fold. Moreover, in assay [3], the “increase in susceptibility” value was in the range of 8 to 10 fold. Moreover, the “change in susceptibility / resistance” value in [6] is recorded as “reduced susceptibility; also recorded: resistance”. The “change in susceptibility” value is given as “markedly less susceptible; also recorded: decrease; also recorded: greatly reduce susceptibility” in [7] and “did not significantly alter; also recorded: little or no additional reduction; also recorded: no effect” in assay [8]. For the same compound, the decrease in susceptibility entry in assay [9] is “greater than 800 fold”. Besides, the “resistance profile” value in [14] is listed as “resistance”. Further, in assay [17], the “fold change in susceptibility” value is listed as 640 fold.
